Results as given in paper PMC4371799 (Clinical Epigenetics, 2015).
“And” between values parts separate entries of the source, which are not always exact repeats. Equal entries are not always repeated. Where two headings read alike, the source gives them in different places.

Columns and labels:
CTR1 = tested on: CTR1; design: method as in PMID 19470736; conditions: phase I clinical trial, refractory solid tumors and lymphomas; cited from earlier work
[1] = Azacitidine plasma pharmacokinetics, non-compartmental analysis; assay type: in vivo, patients; conditions: for AUC / Cmax / half-life / AUC(0-inf): human, plasma, intravenous
Source text: Compartmental and non-compartmental modeling were used to derive pharmacokinetic parameters, including Cmax (maximum concentration), AUC (area under the curve), t1/2 (half-life of elimination), Vd (volume of distribution), and CL (clearance).

[2] = tested on: platinum-resistant ovarian cancer cells; conditions: cited from earlier work
[3] = Oxaliplatin plasma pharmacokinetics, non-compartmental analysis; conditions: for AUCall / AUCinf / C max / CL / V d / t 1/2: C1D2, mean (SD)
Procedure: This phase was followed by an expansion phase in which patients with CRC were treated with the maximum tolerated dose (MTD). Patients were treated with six cycles of therapy, unless they withdrew consent or experienced severe adverse events or progressive disease.
Oxaliplatin pharmacokinetics were assessed on day 2 during cycle 1 to permit correlation of pharmacokinetic parameters with toxicity and treatment outcome. Blood samples (10 ml per sample) were collected immediately prior to oxaliplatin infusion, immediately after infusion, and at 1, 2, 4, 6, 8, 12, and 24 h after infusion. Samples were assayed for total and unbound platinum using either inductively coupled plasma mass spectrometry or atomic absorption spectroscopy methods following isolation of the drug from plasma. Compartmental and non-compartmental models were used to derive pharmacokinetic parameters, including Cmax, AUC, t1/2, Vd, and CL.

[4] = Total platinum levels in snap-frozen tumor samples (ICP-MS); assay type: in vivo, patients
Source text: The tumor tissue was frozen and stored in cryogenic storage tubes before being analyzed for total platinum content using inductively coupled plasma mass spectrometry. If a sufficient amount of the sample remained following this analysis, the tissue was subjected to homogenization and extraction with 0.2% formic acid and acetonitrile for analysis by ultra-performance liquid chromatography/mass spectrometry for oxaliplatin content.

[5] = design: method as in PMID 10778943; conditions: traditional infusion once every 2 to 3 weeks; cited from earlier work
[6] = oxaliplatin treatment reported by other investigators; cited from earlier work
[7] = azacitidine/oxaliplatin 20/15 mg/m^2, C1D1, n = 3, mean (SD)
[8] = azacitidine/oxaliplatin 20/15 mg/m^2, C1D5, n = 3, mean (SD)
[9] = azacitidine/oxaliplatin 20/22.5 mg/m^2, C1D1, n = 3, mean (SD)
[10] = azacitidine/oxaliplatin 20/22.5 mg/m^2, C1D5, n = 3, mean (SD)
[11] = azacitidine/oxaliplatin 20/30 mg/m^2, C1D1, n = 3, mean (SD)
[12] = azacitidine/oxaliplatin 20/30 mg/m^2, C1D5, n = 3, mean (SD)
[13] = azacitidine/oxaliplatin 25/30 mg/m^2, C1D1, n = 3, mean (SD)
[14] = azacitidine/oxaliplatin 25/30 mg/m^2, C1D5, n = 3, mean (SD)
[15] = azacitidine/oxaliplatin 40/30 mg/m^2, C1D1, n = 3, mean (SD)
[16] = azacitidine/oxaliplatin 40/30 mg/m^2, C1D5, n = 3, mean (SD)
[17] = azacitidine/oxaliplatin 50/30 mg/m^2, C1D1, n = 22, mean (SD)
[18] = azacitidine/oxaliplatin 50/30 mg/m^2, C1D5, n = 22, mean (SD)
[19] = azacitidine/oxaliplatin 20/15 mg/m^2, n = 3
[20] = azacitidine/oxaliplatin 20/22.5 mg/m^2, n = 3
[21] = azacitidine/oxaliplatin 20/30 mg/m^2, n = 3
[22] = azacitidine/oxaliplatin 25/30 mg/m^2, n = 3
[23] = azacitidine/oxaliplatin 40/30 mg/m^2, n = 3
[24] = azacitidine/oxaliplatin 50/30 mg/m^2, n = 22
[25] = oxaliplatin 15 to 30 mg/m^2/day IV over 2 h, days 2 to 5, mean over dose levels
[26] = post-dose vs pre-dose, five post-dose tumor samples, dose level 6
[27] = seven patients, expansion phase, before treatment

Nc1ncn([C@H]2C[C@H](O)[C@@H](CO)O2)c(=O)n1 [decitabine]
effect on CTR1 expression (CTR1): significantly increased CTR1 expression

Nc1ncn([C@@H]2O[C@H](CO)[C@@H](O)[C@H]2O)c(=O)n1 [azacitidine]
dose-dependent interaction on mean systemic exposure (plasma AUCall) ([1]; azacitidine D1 and 5, with oxaliplatin): increasing the dose of oxaliplatin reduced the mean azacitidine exposure | CL [1, 7]: 167.1 (170.5) l/h/m^2 | V d [1, 7]: 92.3 (58.9) l/m^2 | CL [1, 8]: 136.7 (97.0) l/h/m^2 | V d [1, 8]: 61.1 (35.4) l/m^2 | CL [1, 9]: 62.7 (53.9) l/h/m^2 | V d [1, 9]: 78.6 (54.4) l/m^2 | CL [1, 10]: 62.9 (25.4) l/h/m^2 | V d [1, 10]: 85.4 (69.0) l/m^2 | CL [1, 11]: 239.3 (139.2) l/h/m^2 | V d [1, 11]: 226.5 (253.4) l/m^2 | CL [1, 12]: 146.1 (40.0) l/h/m^2 | V d [1, 12]: 71.6 (19.0) l/m^2 | CL [1, 13]: 168.6 (126.7) l/h/m^2 | V d [1, 13]: 70.3 (35.7) l/m^2 | CL [1, 14]: 150.0 (74.6) l/h/m^2 | V d [1, 14]: 132.2 (62.5) l/m^2 | CL [1, 15]: 616.6 (525.5) l/h/m^2 | V d [1, 15]: 105.8 (37.0) l/m^2 | CL [1, 16]: 253.0 (165.5) l/h/m^2 | V d [1, 16]: 95.6 (57.3) l/m^2 | AUCinf [1, 17]: 412.1 (195.7) h-ng/ml | C max [1, 17]: 581.1 (284.8) ng/ml | CL [1, 17]: 178 l/h/m^2 and 177.7 (155.9) l/h/m^2 | V d [1, 17]: 121 l/m^2 and 120.6 (112.0) l/m^2 | AUCinf [1, 18]: 431.5 (261.7) h-ng/ml | C max [1, 18]: 637.7 (428.6) ng/ml | CL [1, 18]: 156 l/h/m^2 and 156.2 (80.7) l/h/m^2 | V d [1, 18]: 94 l/m^2 and 94.0 (50.7) l/m^2 | AUC [1, 7]: 216 ng·h/mL | Cmax [1, 7]: 327 ng/mL | half-life [1, 7]: 32.4 min | AUC(0-inf) ([1]; azacitidine/oxaliplatin 20/15 mg/m^2, C1D1, n = 3, mean (SD), read-out: AUCinf): 221 ng·h/mL | AUC [1, 8]: 193 ng·h/mL | Cmax [1, 8]: 334 ng/mL | half-life [1, 8]: 21 min | AUC(0-inf) ([1]; azacitidine/oxaliplatin 20/15 mg/m^2, C1D5, n = 3, mean (SD), read-out: AUCinf): 196 ng·h/mL | AUC [1, 9]: 428 ng·h/mL | Cmax [1, 9]: 427 ng/mL | half-life [1, 9]: 653 min | AUC(0-inf) ([1]; azacitidine/oxaliplatin 20/22.5 mg/m^2, C1D1, n = 3, mean (SD), read-out: AUCinf): 2330 ng·h/mL | AUC(0-inf) ([1]; azacitidine/oxaliplatin 20/22.5 mg/m^2, C1D1, n = 3, median (footnote a), read-out: AUCinf, median): 259 ng·h/mL | AUC [1, 10]: 317 ng·h/mL | Cmax [1, 10]: 452 ng/mL | half-life [1, 10]: 76.2 min | AUC(0-inf) ([1]; azacitidine/oxaliplatin 20/22.5 mg/m^2, C1D5, n = 3, mean (SD), read-out: AUCinf): 357 ng·h/mL | AUC [1, 11]: 112 ng·h/mL | Cmax [1, 11]: 206 ng/mL | half-life [1, 11]: 32.4 min | AUC(0-inf) ([1]; azacitidine/oxaliplatin 20/30 mg/m^2, C1D1, n = 3, mean (SD), read-out: AUCinf): 125 ng·h/mL | AUC [1, 12]: 144 ng·h/mL | Cmax [1, 12]: 214 ng/mL | half-life [1, 12]: 20.4 min | AUC(0-inf) ([1]; azacitidine/oxaliplatin 20/30 mg/m^2, C1D5, n = 3, mean (SD), read-out: AUCinf): 146 ng·h/mL | AUC [1, 13]: 210 ng·h/mL | Cmax [1, 13]: 252 ng/mL | half-life [1, 13]: 19.8 min | AUC(0-inf) ([1]; azacitidine/oxaliplatin 25/30 mg/m^2, C1D1, n = 3, mean (SD), read-out: AUCinf): 216 ng·h/mL | AUC [1, 14]: 208 ng·h/mL | Cmax [1, 14]: 273 ng/mL | half-life [1, 14]: 43.2 min | AUC(0-inf) ([1]; azacitidine/oxaliplatin 25/30 mg/m^2, C1D5, n = 3, mean (SD), read-out: AUCinf): 214 ng·h/mL | AUC [1, 15]: 97.5 ng·h/mL | Cmax [1, 15]: 190 ng/mL | half-life [1, 15]: 9.6 min | AUC(0-inf) ([1]; azacitidine/oxaliplatin 40/30 mg/m^2, C1D1, n = 3, mean (SD), read-out: AUCinf): 100 ng·h/mL | AUC [1, 16]: 206 ng·h/mL | Cmax [1, 16]: 289 ng/mL | half-life [1, 16]: 16.2 min | AUC(0-inf) ([1]; azacitidine/oxaliplatin 40/30 mg/m^2, C1D5, n = 3, mean (SD), read-out: AUCinf): 212 ng·h/mL | AUC [1, 17]: 404 ng·h/mL | Cmax [1, 17]: 581 ng/mL | half-life [1, 17]: 40.2 min | AUC(0-inf) ([1]; azacitidine/oxaliplatin 50/30 mg/m^2, C1D1, n = 22, mean (SD), read-out: AUCinf): 412 ng·h/mL | AUC [1, 18]: 426 ng·h/mL | Cmax [1, 18]: 638 ng/mL | half-life [1, 18]: 25.2 min | AUC(0-inf) ([1]; azacitidine/oxaliplatin 50/30 mg/m^2, C1D5, n = 22, mean (SD), read-out: AUCinf): 432 ng·h/mL | effect on sensitivity to carboplatin [2]: enhance the sensitivity of platinum-resistant ovarian cancer cells to carboplatin

O=C1[O][Pt]2([NH][C@@H]3CCCC[C@H]3[NH]2)[O]C1=O [oxaliplatin]
AUCall [3, 19]: 704.3 (228.5) h-ng/ml | AUCinf [3, 19]: 1,003.5 (211.1) h-ng/ml | C max [3, 19]: 337.3 (141.3) ng/ml | CL [3, 19]: 15.5 (3.7) l/h/m^2 | V d [3, 19]: 829.2 (580.0) l/m^2 | t 1/2 [3, 19]: 38.9 (31.9) h | AUCall [3, 20]: 1,178.4 (238.0) h-ng/ml | AUCinf [3, 20]: 1,359.3 (167.1) h-ng/ml | C max [3, 20]: 573.5 (131.1) ng/ml | CL [3, 20]: 16.7 (2.0) l/h/m^2 | V d [3, 20]: 443.5 (232.2) l/m^2 | t 1/2 [3, 20]: 17.9 (7.7) h | AUCall [3, 21]: 1,149.0 (930.3) h-ng/ml | AUCinf [3, 21]: 1,411.6 (1,065.1) h-ng/ml | C max [3, 21]: 446.9 (447.8) ng/ml | CL [3, 21]: 29.1 (15.7) l/h/m^2 | V d [3, 21]: 794.5 (703.8) l/m^2 | t 1/2 [3, 21]: 18.6 (11.9) h | AUCall [3, 22]: 1,369.1 (556.1) h-ng/ml | AUCinf [3, 22]: 1,919.4 (923.3) h-ng/ml | C max [3, 22]: 582.6 (270.3) ng/ml | CL [3, 22]: 19.2 (11.4) l/h/m^2 | V d [3, 22]: 587.5 (240.1) l/m^2 | t 1/2 [3, 22]: 23.7 (10.2) h | AUCall [3, 23]: 1,543.5 (502.1) h-ng/ml | AUCinf [3, 23]: 1,867.0 (387.0) h-ng/ml | C max [3, 23]: 751.7 (275.5) ng/ml | CL [3, 23]: 16.6 (3.9) l/h/m^2 | V d [3, 23]: 613.8 (541.2) l/m^2 | t 1/2 [3, 23]: 23.3 (15.6) h | AUCall [3, 24]: 1,286.3 (627.0) h-ng/ml | AUCinf [3, 24]: 1,456 h-ng/ml and 1,455.9 (657.6) h-ng/ml | C max [3, 24]: 650 ng/ml and 649.4 (384.5) ng/ml | CL [3, 24]: 24.5 l/h/m^2 and 24.5 (10.2) l/h/m^2 | V d [3, 24]: 554 l/m^2 and 554.0 (250.7) l/m^2 | t 1/2 [3, 24]: 16.5 (7.1) h | AUCinf, mean of the current infusion regimen [3, 25]: 1,503 ng-h/ml | Cmax, mean of the current infusion regimen [3, 25]: 557 ng/mL | kinetics of elimination ([3]; plasma, all dose levels): first-order kinetics of elimination | increase of tumor platinum concentration, median [4, 26]: 3.8 fold | increase of tumor platinum concentration, range [4, 26]: 3- to 18 fold | change of tumor platinum concentration ([4]; post-dose vs pre-dose, the two tumor samples with the highest pre-dose level): remained unchanged | pre-dose platinum level in tumor, median [4, 27]: 0.59 μg/g tumor | pre-dose platinum level in tumor, range [4, 27]: <0.25 to 5.8 μg/g tumor | AUCinf, mean, traditional infusion [5]: 9,907 ng-h/ml | Cmax, mean, traditional infusion [5]: 877 ng/mL | incidence of peripheral neuropathy, all grades [6]: 40% to 50 | incidence of peripheral neuropathy, grade ≥3 [6]: 10% to 20
